# Measurements published in article PMC5919655, “Practical spectrophotometric assay for the dapE-encoded N-succinyl-L,L-diaminopimelic acid desuccinylase, a potential antibiotic target” (PLoS ONE, 2018).
# Assays:
# [1] = molecular target: T1, succinyl-diaminopimelate desuccinylase (HiDapE) (Haemophilus influenzae, UniProt P44514); experiment: ninhydrin-based assay of purified HiDapE with N6-methyl-L,L-SDAP substrate, […] nm; assay type: biochemical
# T1 construct: gene dapE; recombinant HiDapE, His6-tag cleaved with TEV protease
# [2] = molecular target: T1, succinyl-diaminopimelate desuccinylase (HiDapE); experiment: hydrolysis by purified HiDapE monitored at […] nm (kcat/Km); assay type: biochemical
# T1 sequence (P44514 whole entry): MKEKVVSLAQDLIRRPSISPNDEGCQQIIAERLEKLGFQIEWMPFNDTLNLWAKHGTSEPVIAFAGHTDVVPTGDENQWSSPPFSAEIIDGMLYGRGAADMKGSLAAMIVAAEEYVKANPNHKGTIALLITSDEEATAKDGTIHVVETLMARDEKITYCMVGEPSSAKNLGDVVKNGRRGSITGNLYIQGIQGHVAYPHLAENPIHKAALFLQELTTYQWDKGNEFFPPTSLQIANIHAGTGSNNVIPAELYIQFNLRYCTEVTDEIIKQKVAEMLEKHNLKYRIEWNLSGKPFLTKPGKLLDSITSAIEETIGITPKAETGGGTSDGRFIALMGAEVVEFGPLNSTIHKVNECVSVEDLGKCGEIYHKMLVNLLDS
SMILES,IC50 [1] [µM],hydrolysis by purified HiDapE monitored at 225 nm (kcat/Km) [2]
O=C(O)c1cccc(S)c1 [3-mercaptobenzoic acid],21.8,–
"CN[C@@H](CCC[C@H](NC(=O)CCC(=O)O)C(=O)O)C(=O)O [1b, (2S,6S)-2-(3-Carboxypropanamido)-6-(methylamino)heptanedioic acid]",–,3.87x 10^4 M^-1S^-1
OB(O)c1cccs1 [2-thiopheneboronic acid],111,–
